The subject of assay [1] is TBA (DNA, G4) GGTTGGTGTGGTTGG
Description: variable-temperature CD. The following applies: K+ (100 mM KF, 10 mM potassium phosphate); PBS pH 7.4; 5 μM DNA, 5 equivalents (25 μM) compound.

Assay [2] deals with dsDNA (DNA, hairpin, HEG linker (non-nucleotide loop) between 10 and 11) TATAGCTATATATAGCTATA
The experiment in a line: variable-temperature CD. The following applies: K+ (100 mM KF, 10 mM potassium phosphate); PBS pH 7.4; 5 μM DNA, 5 equivalents (25 μM) compound; per base.

Assay [3] concerns h-TELO (DNA, G4) AGGGTTAGGGTTAGGGTTAGGGT
The experiment in a line: variable-temperature CD. The following applies: K+ (100 mM KF, 10 mM potassium phosphate); PBS pH 7.4; 5 μM DNA, 5 equivalents (25 μM) compound.

Assay [4] relates to c-KIT1 (DNA, G4) GGGAGGGCGCTGGGAGGAGGG
The experiment in a line: variable-temperature CD. The note with it: K+ (100 mM KF, 10 mM potassium phosphate); PBS pH 7.4; 2 μM DNA, 5 equivalents (10 μM) compound.

For assay [5] the test system is unchanged. Description: UV-Vis titration. The following applies: K+ (100 mM KF, 10 mM potassium phosphate); PBS pH 7.4, ca. 20 °C; 2 μM DNA; 1:1 fit.
Assay [6] relates to dsDNA (DNA, hairpin, HEG linker (non-nucleotide loop) between 10 and 11) TATAGCTATATATAGCTATA
Description: UV-Vis titration. The note with it: K+ (100 mM KF, 10 mM potassium phosphate); PBS pH 7.4, ca. 20 °C; 5 μM DNA; 1:1 fit; per base.

In assay [7] the test system is h-TELO (DNA, G4) AGGGTTAGGGTTAGGGTTAGGGT
The experiment in a line: UV-Vis titration. The note with it: K+ (100 mM KF, 10 mM potassium phosphate); PBS pH 7.4, ca. 20 °C; 5 μM DNA; 1:1 fit.

Molecules are shown by their SMILES.

For orientation: ΔTm means the change in melting temperature against a reference sample. On to `O=C(O)[C@@H](O)[C@@H](Cc1ccccc1)N1C(=O)c2ccc3c4c(ccc(c24)C1=O)C(=O)N([C@H](Cc1ccccc1)[C@H](O)C(=O)O)C3=O`, for which the ΔTm was 0.8 °C in assay [1] and −0.1 °C in assay [2].
`C[C@@H](CC(=O)O)N1C(=O)c2ccc3c4c(ccc(c24)C1=O)C(=O)N([C@@H](C)CC(=O)O)C3=O`: the values for the ΔTm in assay [2] and in assay [3] were −2.1 °C and 0.2 °C, respectively.
As a reminder, the KD is the free concentration of one partner at which half of the binding sites on the other are occupied at equilibrium, for simple one-to-one binding. A high value points to a looser complex. Consider `CC(C)(C)OC(=O)N[C@@H](CN1C(=O)c2ccc3c4c(ccc(c24)C1=O)C(=O)N(C[C@H](NC(=O)OC(C)(C)C)C(=O)O)C3=O)C(=O)O`, for which the figures for the ΔTm in assay [4], in assay [1] and in assay [3] were 5.4 °C, 0.1 °C and 2.4 °C, respectively. Moreover, the KD in assay [5] turned out to be 2.6 ± 0.4 µM; in assay [6] it was 65.2 ± 35.9 µM.
For the compound `CC(C)(C)OC(=O)N[C@H](CN1C(=O)c2ccc3c4c(ccc(c24)C1=O)C(=O)N(C[C@@H](NC(=O)OC(C)(C)C)C(=O)O)C3=O)C(=O)O`, the ΔTm in assay [4] amounted to 1.7 °C. Further, the KD in assay [5] came out at 8.0 ± 2.5 µM; in assay [6], 30.7 ± 6.9 µM.
As for `CC(C)C[C@H](CC(=O)O)N1C(=O)c2ccc3c4c(ccc(c24)C1=O)C(=O)N([C@@H](CC(=O)O)CC(C)C)C3=O`, the ΔTm in assay [4] is −0.9 °C. The KD was 13.6 ± 3.4 µM in assay [7] and 50.2 ± 15.4 µM in assay [6].
Regarding `CC(C)C[C@@H](CC(=O)O)N1C(=O)c2ccc3c4c(ccc(c24)C1=O)C(=O)N([C@H](CC(=O)O)CC(C)C)C3=O`, the ΔTm in assay [1] is −0.1 °C; in assay [3] it was 1.7 °C. Besides, the KD in assay [7] was 11.0 ± 3.1 µM; in assay [6], 23.6 ± 8.4 µM.
Regarding `O=C(O)[C@@H](O)CN1C(=O)c2ccc3c4c(ccc(c24)C1=O)C(=O)N(C[C@H](O)C(=O)O)C3=O`, the shift in melting temperature (ΔTm) in assay [4] was 3.2 °C.

The values are drawn from publication PMC10647805 (2023).
